Experimental findings from US20160326098A1, “Pharmaceutically Active Compound for Use as Anti-inflammatory Agent” (Pax Forschung GmbH, priority 2013, published 2016) are described below.

SMILES strings stand for the structures.

One data set has as its system myeloperoxidase (MPO). Kind of data set: Tissue myeloperoxidase activity, mice with gastric injury without inflammation. The note with it: gastric and duodenal tissue, one day after treatment with 1.11 mmol/kg, vs control group A, FIGS. 5a/5b. It counts as in vivo. On the procedure:
[…] The homogenate was centrifuged at 4° C. for 20 minutes at 24,000 g, and the supernatant was loaded into centrifugal tubes (Amicon Centricon-100; 100,000-molecular-weight cutoff ultrafilter, Millipore Corporation, Bedford, Mass.). The activity of myeloperoxidase (MPO) was measured on the pellet of the homogenate.
The activity of MPO as a marker of tissue leukocyte infiltration was measured on the pellet of the homogenate. Briefly, the pellet was resuspended in K3PO4 buffer (0.05 M; pH 6.0) containing 0.5% […]. […] The reaction led to the hydrogen peroxide-dependent oxidation of tetramethylbenzidine, which could be detected spectrophotometrically at 450 nm (UV-1601 spetrophotometer; Shimadzu, Kyoto, Japan). Myeloperoxidase activities were measured at 37° C.; the reaction was stopped after 5 minutes by the addition of 0.2 ml of H2SO4 (2 M), and the resulting data were referred to the protein content.
First experiments regarding the effect of the compound of formula (I) and a pharmaceutical composition comprising the compound of formula (I) (clear aqueous solution of compound of formula (I) at pH 4.8), respectively, on gastric injury without inflammation were conducted on mice. […] The effects were determined by way of measurement of body weight, blood gas analysation and biopsy. […]

For data set [1], the system named is nitrite/nitrate (NOx). Kind of data set: Nitrite/nitrate level in blood, rats with TNBS-induced colitis. It counts as in vivo. The settings on record: 1.11 mmol/kg, vs groups L and M, FIG. 34. How it is done:
Colonic inflammation was induced by intracolonic administration of TNBS (2,4,6-trinitrobenzenesulfonic acid) (40 mg/kg in 0.25 ml of 25% aqueous ethanol) through an 8-cm-long soft plastic catheter under transient diethylether anesthesia. In the sham-operated groups, only the vehicle for TNBS was administered. The animals were deprived of food, but not water, for 12 h before the enemas.
(§1) The levels of plasma nitrite/nitrate (NOx), stable end products of NO were measured by the Griess reaction. This assay depends on the reduction of nitrate to nitrite, which is then converted into a colored azo dye compound that is detected spectrophotometrically at 540 nm.
The above-described clinical studies were repeated with animals having colitis which was induced as described above. […] Two days after the enema the effects of the treatment were determined by measurement of body weight, blood gas analysis and biopsy. […] Surgery was performed to allow registration of the hemodynamic parameters at 1 h intervals for 6 h (cardiac output [CO] data were measured only at the end of the experiments). […] In addition, fluorescence confocal endomicroscopy was performed to examine the microvasculature and morphologic changes of the mucosa of the distal colon, and full-thickness tissue samples and venous blood samples were taken to determine the biochemical changes in the colon and plasma.

For data set [2], the system named is nitrite/nitrate (NOx). The data set is described as follows: Nitrite/nitrate level, colitis animals, comparison with GM-20 (FIG. 35). Type of data set: in vivo, rats. The settings on record: 1.11 mmol/kg body weight, vs sham control group P. How it is done:
as §1
The above-described clinical studies were repeated with animals having colitis which was induced as described above. 20 animals (rats) were randomly divided into four groups, wherein group L served as sham-operated control, having no colitis, group M served as second control having colitis but receiving no further treatment, group N having colitis and being treated with 1.11 mmol/kg body weight of ASS and group O having colitis and being treated with 1.11 mmol/kg of the compound according to the invention. One day after the animals received the enema with TNBS (40 mg/kg i.c.), wherein the animals of group L only received the respective solvent, the animals of group N and O were treated with ASS and the compound according to the invention, respectively. The other animals only received the respective solvent again. Two days after the enema the effects of the treatment were determined by measurement of body weight, blood gas analysis and biopsy. […] Surgery was performed to allow registration of the hemodynamic parameters at 1 h intervals for 6 h (cardiac output [CO] data were measured only at the end of the experiments). […] In addition, fluorescence confocal endomicroscopy was performed to examine the microvasculature and morphologic changes of the mucosa of the distal colon, and full-thickness tissue samples and venous blood samples were taken to determine the biochemical changes in the colon and plasma.
The tests were conducted according to the above described protocol. […] Comparative compound GM-20 is described in the state of the art as being suitable for the therapeutic treatment pathologic disorders characterized by degranulation of the mast cells caused by immunogenic hyperstimulation (see U.S. Pat. No. 5,506,224) The nitrite/nitrate level was measured as described above.

Another data set concerns xanthine oxidase enzyme. The data set is described as follows: Xanthine oxidase enzyme activity in tissue, rats with gastric injury without inflammation. It counts as in vivo. The note with it: gastric and colon tissue, 1.11 mmol/kg, vs control group H, FIGS. 24a/24b. How it is done: The XOR activity was determined in the ultrafiltered, concentrated supernatant by fluorometric kinetic assay based on the conversion of pterine to isoxanthopterine in the presence (total XOR) or absence (xanthine oxidase activity) of the electron acceptor methylene blue.
Further experiments regarding the effect of a compound of formula (I) and a pharmaceutical composition comprising a compound of formula (I), respectively, on gastric injury without inflammation were conducted on rats. 15 animals were randomly allocated into three groups. Group H (n=5) served as sham-operated controls. Samples of all animals were drawn on day 1 of the clinical tests. On day 2 the animals of group I (n=5) were force-fed acetylsalicylic acid (ASS) (1.11 mmol/kg body weight). Group K (n=5) was force-fed 1.11 mmol/kg body weight of the compound according to the invention. Group H only received the respective solvent (25% ethanol in water). One day after the gavage, additional samples were drawn. Fluorescence confocal endomicroscopy was performed to examine the microvasculature and morphologic changes of the mucosa of the distal colon, and full-thickness tissue samples and venous blood samples were taken to determine the biochemical changes in the colon and plasma. The effects were determined by way of measurement of body weight, blood gas analysation and biopsy. […]

For a further data set, the system named is colon inflammation. Kind of data set: Macroscopic score of colon inflammation, rats with TNBS-induced colitis. The settings on record: 1.11 mmol/kg, Morris score 0-4, untreated colitis group class 3 to 4, FIG. 29. It counts as in vivo.

Experimental for colon inflammation: Colonic inflammation was induced by intracolonic administration of TNBS (2,4,6-trinitrobenzenesulfonic acid) (40 mg/kg in 0.25 ml of 25% aqueous ethanol) through an 8-cm-long soft plastic catheter under transient diethylether anesthesia. In the sham-operated groups, only the vehicle for TNBS was administered. The animals were deprived of food, but not water, for 12 h before the enemas. […] The other animals only received the respective solvent again. Two days after the enema the effects of the treatment were determined by measurement of body weight, blood gas analysis and biopsy. The animals were anesthetized two days after colitis induction. Surgery was performed to allow registration of the hemodynamic parameters at 1 h intervals for 6 h (cardiac output [CO] data were measured only at the end of the experiments). Intravital videomicroscopy was performed at the end of the experiments to visualize the serosal microcirculation 3 cm distal from the cecum. In addition, fluorescence confocal endomicroscopy was performed to examine the microvasculature and morphologic changes of the mucosa of the distal colon, and full-thickness tissue samples and venous blood samples were taken to determine the biochemical changes in the colon and plasma. […]

With `CC(=O)Oc1ccccc1C(=O)O` [ASS, acetylsalicylic acid, reference compound], the “myeloperoxidase (MPO) activity” value in the data set with myeloperoxidase (MPO) is “increased”. Besides, the “nitrite/nitrate level in the blood” value with nitrite/nitrate (NOx) [1] is reported as “increased nitrite/nitrate level”. The nitrite/nitrate level entry with nitrite/nitrate (NOx) [2] is “increased nitrite/nitrate level”. Moreover, the “activity of xanthine oxidase enzyme” value in the data set on xanthine oxidase enzyme is recorded as “increased activity”. For the same compound, the “macroscopic score of colon inflammation” value in the data set with colon inflammation is “slightly less severe symptoms”.

Regarding `CC(=O)Oc1ccccc1C(=O)NC(CO)(CO)CO` [compound according to the invention], the “myeloperoxidase (MPO) activity” value with myeloperoxidase (MPO) is “does not further enhance the inflammatory processes”. In addition, the “nitrite/nitrate level in the blood” value with nitrite/nitrate (NOx) [1] is “nitrite/nitrate levels comparable to those of healthy animals”. The nitrite/nitrate level result in the data set with nitrite/nitrate (NOx) [2] is “did not lead to an increase in the nitrite/nitrate level”. Also, in the data set with xanthine oxidase enzyme, the “activity of xanthine oxidase enzyme” value is “no such increase”. In addition, the “macroscopic score of colon inflammation” value with colon inflammation is “only showed increased erythema”.
